{"source": "patent US8377963B2", "about": "“Insulin-regulated aminopeptidase (IRAP) inhibitors and uses thereof” (Howard Florey Institute, priority 2007, dated 2013)", "target": "T1, Aminopeptidase N (Sus scrofa, UniProt P15145)", "T1 construct": "purchased Sigma Aldrich", "T1 sequence (P15145 1-963)": "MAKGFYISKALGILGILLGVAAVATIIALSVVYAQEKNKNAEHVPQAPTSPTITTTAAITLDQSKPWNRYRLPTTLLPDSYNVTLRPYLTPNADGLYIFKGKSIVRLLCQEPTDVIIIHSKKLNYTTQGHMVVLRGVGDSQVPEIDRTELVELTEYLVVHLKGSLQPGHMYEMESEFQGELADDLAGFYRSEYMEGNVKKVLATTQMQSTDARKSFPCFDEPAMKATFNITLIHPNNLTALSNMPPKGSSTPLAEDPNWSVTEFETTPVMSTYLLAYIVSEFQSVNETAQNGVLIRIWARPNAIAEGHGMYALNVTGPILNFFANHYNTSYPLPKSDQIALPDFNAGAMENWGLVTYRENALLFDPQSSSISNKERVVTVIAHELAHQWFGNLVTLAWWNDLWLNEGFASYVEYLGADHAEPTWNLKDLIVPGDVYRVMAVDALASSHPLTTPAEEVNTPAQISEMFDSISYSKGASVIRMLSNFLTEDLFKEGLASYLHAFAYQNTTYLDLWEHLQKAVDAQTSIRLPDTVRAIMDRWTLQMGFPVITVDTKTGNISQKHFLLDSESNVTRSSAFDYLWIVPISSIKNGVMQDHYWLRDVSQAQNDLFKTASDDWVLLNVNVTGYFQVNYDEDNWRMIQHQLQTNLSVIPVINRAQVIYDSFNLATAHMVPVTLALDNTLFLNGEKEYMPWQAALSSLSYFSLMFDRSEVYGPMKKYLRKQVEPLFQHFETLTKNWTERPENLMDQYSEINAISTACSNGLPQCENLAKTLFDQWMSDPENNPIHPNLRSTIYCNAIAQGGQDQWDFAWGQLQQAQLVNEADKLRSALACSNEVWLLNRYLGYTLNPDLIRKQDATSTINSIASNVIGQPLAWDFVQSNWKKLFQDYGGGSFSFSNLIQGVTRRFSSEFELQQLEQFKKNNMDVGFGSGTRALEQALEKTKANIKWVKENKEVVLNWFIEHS", "assay": "Aminopeptidase N assay", "type": "biochemical", "conditions": "10 μM; read-out: % inhibition of the catalytic activity of the enzyme", "method": "Aminopeptidase N assay. 5 mU of aminopeptidase M (Sigma Aldrich) was incubated with 100 μM of substrate alanine-β-naphthylamide (Sigma Aldrich) in Tris buffered saline (50 mM Tris-HCl, 150 mM NaCl pH 7.5) at 25° C. IRAP inhibitors (1-10 μM) were added after 1 minute and fluorescence at 405 nm was followed.\nLimited inhibition of control enzymes was observed."}
{"smiles": "CCOC(=O)C1=C(NC(C)=O)Oc2cc(O)ccc2C1c1cccnc1", "note": "(stereo not shown) [Compound 2, Ethyl 2-(acetylamino)-7-hydroxy-4-pyridin-3-yl-4H-chromene-3-carboxylate]", "values": [{"measurement": "inhibition at 10 µM", "result": 13, "unit": "%"}]}
